One data set concerns HIV-1(III B). Description: Inhibition of cytopathogenicity of HIV-1(IIIB) in MT4 cells, cell-protection assay. In kind it is cell-based, human immunodeficiency virus type 1 (HIV-1). (In general: Protection from cytopathic effect is a common read-out in antiviral testing.)
Data set [1] is described as follows: Determination of solubility in phosphate buffer (UV absorbance). In kind it is physicochemical. To be noted: for water solubility, in words: compared with AZT.
Method: Determination of Solubility. Each compound (70 mg) listed in Table 1 was agitated in a 25-mL volumetric flask with phosphate buffer (0.10M, 5.0 mL) for 20 h.
The subject of another data set is MT4 cell. Nature of the data set: Cellular toxicity in uninfected MT4 cells. It is filed as cell-based. To be noted: Homo sapiens. How it is done:
Toxicity of these compounds was evaluated by their ability to cause morphological changes in cells at different concentrations.
^a Inhibitory concentrations (IC50) represent the average of
triplicate determinations;
^b Concentration of the compound required to reduce the number of
viable uninfected cells by 50%; and […]

Where [2] appears, read: Human immunodeficiency virus 1, cytopathogenicity in MT4 cells, average of triplicate determinations, read-out: IC50 HIV-1(III B).
The mark [3] stands for this setting: phosphate buffer (0.10M), agitated 20 h.
Where [4] appears, read: uninfected MT4 cells, average of triplicate determinations, read-out: IC50 MT4 cell (concentration required to reduce the number of viable uninfected cells by 50%).

In brackets after ≈: the same amount, converted by molar mass. Where two headings read alike, the source gives them in different places. Some results are limits rather than exact numbers.

As to `COC(=O)[C@H](C)NP(=O)(C[C@H]1O[C@@H](n2cc(C)c(=O)[nH]c2=O)C[C@@H]1N=[N+]=[N-])O[C@H]1C[C@H](n2cc(C)c(=O)[nH]c2=O)O[C@@H]1CO` (stereo partly drawn) [Compound X, (2R,4S,5R)-1-[4-Azidotetrahydro-5-[[(3'-O-thymidinyl)(methoxy-L-alaninyl)-phosphinylidene]methyl]-2-furyl]thymine], the IC50 stood at 0.61 µg/mL (≈ 0.952 µM) with HIV-1(III B) (setting [2]) and 200 µg/mL (≈ 312 µM) in the data set with MT4 cell (setting [4]). Also, in data set [1] (setting [3]), the “solubility in H2 O” value came out at 9130 µg/mL (≈ 14300 µM).

For the molecule `Cc1cn([C@H]2C[C@H](N=[N+]=[N-])[C@@H](CO)O2)c(=O)[nH]c1=O` [AZT, 3'-Azido-3'-deoxythymidine, reference compound], the IC50 came to 0.02 µg/mL (≈ 0.0748 µM) with HIV-1(III B) (Human immunodeficiency virus 1, MT4, read-out: IC50 HIV-1(III B)) and 57.3 µg/mL (≈ 214 µM) in the data set on MT4 cell (MT4, read-out: IC50 MT4 cell (concentration required to reduce the number of viable uninfected cells by 50%)).

Take `COC(=O)[C@H](C)NP(=O)(C[C@H]1O[C@@H](n2cc(C)c(=O)[nH]c2=O)C[C@@H]1F)O[C@H]1C[C@H](n2cc(C)c(=O)[nH]c2=O)O[C@@H]1CO` (stereo partly drawn) [Compound IX, (2R,4S,5R)-1-[4-Fluorotetrahydro-5-[[(3'-O-thymidinyl)(methoxy-L-alaninyl)-phosphinylidene]methyl]-2-furyl]thymine]: the IC50 with HIV-1(III B) (setting [2]) worked out at 0.34 µg/mL (≈ 0.551 µM); in the data set with MT4 cell (setting [4]), 180 µg/mL (≈ 292 µM). The “solubility in H2 O” value in data set [1] (setting [3]) worked out at 8790 µg/mL (≈ 14200 µM).

On to `Cc1cn([C@H]2C[C@H](OP(=O)(O)C[C@H]3O[C@@H](n4cc(C)c(=O)[nH]c4=O)C[C@@H]3F)[C@@H](CO)O2)c(=O)[nH]c1=O` [Compound VII, (2R,4S,5R)-1-[4-Fluorotetrahydro-5-[(3'-O-thymidinyl-phosphinico)methyl]-2-furyl]thymine], for which the IC50 in the data set with HIV-1(III B) (setting [2]) amounted to 3.04 µg/mL (≈ 5.71 µM); in the data set with MT4 cell (setting [4]), 79 µg/mL (≈ 148 µM). Moreover, the “solubility in H2 O” value in data set [1] (setting [3]) was 3980 µg/mL (≈ 7480 µM).

For `COC(=O)[C@@H](C)NP(=O)(C[C@H]1O[C@@H](n2cc(C)c(=O)[nH]c2=O)C[C@@H]1F)O[C@H]1C[C@H](n2cc(C)c(=O)[nH]c2=O)O[C@@H]1CO` (stereo partly drawn) [Compound XI, (2R,4S,5R)-1-[4-Fluorotetrahydro-5-[[(3'-O-thymidinyl)(methoxy-D-alaninyl)-phosphinylidene]methyl]-2-furyl]thymine], the IC50 amounted to 0.5 µg/mL (≈ 0.81 µM) in the data set on HIV-1(III B) (setting [2]) and 462 µg/mL (≈ 748 µM) in the data set on MT4 cell (setting [4]). Besides, the “solubility in H2 O” value in data set [1] (setting [3]) was determined as 8920 µg/mL (≈ 14400 µM).

`Cc1cn([C@H]2C[C@H](C#N)[C@@H](CP(=O)(O)O)O2)c(=O)[nH]c1=O` [IV, 3'-Cyano-3',5'-dideoxythymidine-5'-phosphonic acid]: the IC50 was above 128 µg/mL with HIV-1(III B) (setting [2]) and 69.9 µg/mL (≈ 222 µM) in the data set on MT4 cell (setting [4]).

On to `Cc1cn([C@H]2C[C@H](N=[N+]=[N-])[C@@H](CP(=O)(O)O[C@H]3C[C@H](n4cc(C)c(=O)[nH]c4=O)O[C@@H]3CO)O2)c(=O)[nH]c1=O` [VIII, (2R,4S,5R)-1-[4-Azidotetrahydro-5-[(3'-O-thymidinyl-phosphinico)methyl]-2-furyl]thymine], for which the IC50 in the data set with HIV-1(III B) (setting [2]) turned out to be 1.92 µg/mL (≈ 3.46 µM); in the data set with MT4 cell (setting [4]), 99.5 µg/mL (≈ 179 µM). Further, the “solubility in H2 O” value in data set [1] (setting [3]) came out at 3240 µg/mL (≈ 5830 µM).

Take `COC(=O)[C@@H](C)NP(=O)(C[C@H]1O[C@@H](n2cc(C)c(=O)[nH]c2=O)C[C@@H]1N=[N+]=[N-])O[C@H]1C[C@H](n2cc(C)c(=O)[nH]c2=O)O[C@@H]1CO` (stereo partly drawn) [Compound XII, (2R,4S,5R)-1-[4-Azidotetrahydro-5-[[(3'-O-thymidinyl)(methoxy-D-alaninyl)-phosphinylidene]methyl]-2-furyl]thymine]: the IC50 in the data set with HIV-1(III B) (setting [2]) was found to be 0.76 µg/mL (≈ 1.19 µM); in the data set on MT4 cell (setting [4]), 458 µg/mL (≈ 714 µM). Besides, the “water solubility, in words” value in data set [1] is given as “higher than that of AZT”. In data set [1] (setting [3]), the “solubility in H2 O” value is 9200 µg/mL (≈ 14400 µM).

For the molecule `Cc1cn([C@H]2C[C@H](F)[C@@H](CP(=O)(O)O)O2)c(=O)[nH]c1=O` [Compound V, 3'-Fluoro-3',5'-dideoxythymidine-5'-phosphonic acid], the IC50 with HIV-1(III B) (setting [2]) was determined as 11.8 µg/mL (≈ 38.3 µM); in the data set on MT4 cell (setting [4]), 98.7 µg/mL (≈ 320 µM). In data set [1], the “water solubility, in words” value is reported as “higher than that of AZT”. In addition, the “solubility in H2 O” value in data set [1] (setting [3]) was found to be 12260 µg/mL (≈ 39800 µM).

Regarding `Cc1cn([C@H]2C[C@H](N=[N+]=[N-])[C@@H](CP(=O)(O)O)O2)c(=O)[nH]c1=O` [Compound VI, 3'-Azido-3',5'-dideoxythymidine-5'-phosphonic Acid], the values for the IC50 in the data set on HIV-1(III B) (setting [2]) and in the data set with MT4 cell (setting [4]) were 7.68 µg/mL (≈ 23.2 µM) and 115 µg/mL (≈ 346 µM), respectively. Besides, the solubility – broadly, the dissolved amount per volume that the medium holds – at 20 h in data set [1] (0.10 m phosphate buffer, aqueous buffer, phosphate buffer (0.10M), agitated 20 h, read-out: solubility in H2 O) turned out to be 11100 µg/mL (≈ 33600 µM).

Turning to `Cc1cn([C@H]2CC[C@@H](CP(=O)(O)O)O2)c(=O)[nH]c1=O` [III, 3',5'-Dideoxythymidine-5'-phosphonic acid], the IC50 with HIV-1(III B) (setting [2]) turned out to be 23.5 µg/mL (≈ 81 µM); in the data set on MT4 cell (setting [4]), 128 µg/mL (≈ 443 µM).

The values are drawn from patent publication US5760013A, “Thymidylate analogs and the use thereof” (National Science Council, priority 1996, dated 1998).
